# Data published in ChEMBL document CHEMBL1201862, “PubChem BioAssay data set” (2004).
# Calls of active or inactive are those of the source.
# Key:
# [1] = molecular target: Beta-2 adrenergic receptor (Homo sapiens, UniProt P07550); experiment: ADRB2 activation measured by internalization – cell-based, FAP fluorogen, flow cytometry, cherry pick 1, dose response (AID 588763); format: functional
# [2] = molecular target: T1, Carboxy-terminal domain RNA polymerase II polypeptide A small phosphatase 1 (Homo sapiens, UniProt Q9GZU7); experiment: CTDSP1 inhibitors, concentration-response, biochemical, absorbance readout, ultra-high-throughput screen actives (AID 540297); format: functional
# T1 sequence (Q9GZU7 whole entry): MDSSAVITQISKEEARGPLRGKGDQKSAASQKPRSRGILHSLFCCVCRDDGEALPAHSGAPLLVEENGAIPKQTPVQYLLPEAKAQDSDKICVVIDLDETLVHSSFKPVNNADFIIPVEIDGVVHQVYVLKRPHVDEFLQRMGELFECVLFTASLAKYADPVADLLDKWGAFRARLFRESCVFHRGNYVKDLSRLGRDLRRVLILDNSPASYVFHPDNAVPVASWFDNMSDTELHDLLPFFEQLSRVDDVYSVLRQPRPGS
# Cytochrome P450 1A2 = molecular target: T2, Cytochrome P450 1A2 (Homo sapiens, UniProt P05177);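 also: PubChem cytochrome P450 panel assay, CYP1A2 panel member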
# T2 sequence (P05177 whole entry): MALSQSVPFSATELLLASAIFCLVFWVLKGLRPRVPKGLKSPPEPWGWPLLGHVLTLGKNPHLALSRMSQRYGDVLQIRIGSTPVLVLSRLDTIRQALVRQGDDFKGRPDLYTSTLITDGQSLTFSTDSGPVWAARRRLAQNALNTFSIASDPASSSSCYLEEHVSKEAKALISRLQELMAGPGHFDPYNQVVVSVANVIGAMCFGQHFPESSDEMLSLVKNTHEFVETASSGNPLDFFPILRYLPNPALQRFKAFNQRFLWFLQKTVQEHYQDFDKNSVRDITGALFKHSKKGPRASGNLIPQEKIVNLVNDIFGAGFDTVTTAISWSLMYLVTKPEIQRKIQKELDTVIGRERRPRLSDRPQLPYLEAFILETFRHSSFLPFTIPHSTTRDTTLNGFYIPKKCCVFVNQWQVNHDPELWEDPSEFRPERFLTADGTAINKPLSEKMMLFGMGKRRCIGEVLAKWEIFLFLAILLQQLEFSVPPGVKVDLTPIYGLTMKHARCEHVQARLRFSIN
# [3] = tested on: Streptococcus sp. 'group A'; experiment: Streptococcus pyogenes SK(-)GAS viability under kanamycin – luminescence, BacTiterGlo, confirmation, counter-screen for streptokinase expression inhibitor project, dose response (AID 1900); format: functional, organism-based
# Streptococcus = experiment: GAS UMAA2166 growth inhibition – luminescence, BacTiterGlo, counter-screen for streptokinase expression inhibitor project, dose response (AID 1915); format: functional, organism-based;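 also: potency for reduction of bacterial viability or growth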
# Genome polyprotein = Genome polyprotein (dengue virus type 2, UniProt P29990); experiment: flavivirus cap methylation enzyme inhibition – biochemical, confirmation dose response, primary screen (AID 588689); format: functional
# Sequence of Genome polyprotein (P29990 2492-3391 limits assumed): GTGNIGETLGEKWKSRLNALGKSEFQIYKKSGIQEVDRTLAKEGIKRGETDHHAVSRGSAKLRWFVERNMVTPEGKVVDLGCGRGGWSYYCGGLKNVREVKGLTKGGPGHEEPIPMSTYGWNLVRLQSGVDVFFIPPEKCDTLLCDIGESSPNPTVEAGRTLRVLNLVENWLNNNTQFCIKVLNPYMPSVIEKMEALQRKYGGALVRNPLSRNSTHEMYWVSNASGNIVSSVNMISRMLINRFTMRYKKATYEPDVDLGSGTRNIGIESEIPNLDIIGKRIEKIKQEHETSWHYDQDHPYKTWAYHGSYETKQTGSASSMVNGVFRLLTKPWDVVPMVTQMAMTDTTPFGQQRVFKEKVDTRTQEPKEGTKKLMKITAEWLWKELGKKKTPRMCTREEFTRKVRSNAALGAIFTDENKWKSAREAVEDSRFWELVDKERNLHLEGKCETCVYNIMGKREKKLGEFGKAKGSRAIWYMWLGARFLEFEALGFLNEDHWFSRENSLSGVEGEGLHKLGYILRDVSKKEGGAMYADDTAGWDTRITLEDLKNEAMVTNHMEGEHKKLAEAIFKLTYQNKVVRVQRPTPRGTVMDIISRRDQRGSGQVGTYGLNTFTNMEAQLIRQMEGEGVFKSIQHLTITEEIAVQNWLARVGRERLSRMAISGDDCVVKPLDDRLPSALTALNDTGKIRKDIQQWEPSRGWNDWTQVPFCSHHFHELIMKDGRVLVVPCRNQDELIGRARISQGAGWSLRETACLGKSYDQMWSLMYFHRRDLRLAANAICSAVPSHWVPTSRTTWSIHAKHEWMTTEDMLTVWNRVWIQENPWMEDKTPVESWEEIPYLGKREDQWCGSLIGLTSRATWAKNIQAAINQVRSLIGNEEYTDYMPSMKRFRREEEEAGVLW
# Vero = experiment: viability of Vero cells under compound – cytotoxicity control for flavivirus capping enzyme inhibitors (AID 588742); format: functional; conditions: Chlorocebus sabaeus
# [4] = molecular target: T3, Corticotropin-releasing factor receptor 2/Corticotropin-releasing factor-binding protein (Homo sapiens, UniProt P24387+Q13324); experiment: activators of CRF receptor 2 with binding protein – uHTS hits, confirmation (AID 602473); format: functional; conditions: read-out: EC50_Mean
# T3 sequence (Q13324 whole entry): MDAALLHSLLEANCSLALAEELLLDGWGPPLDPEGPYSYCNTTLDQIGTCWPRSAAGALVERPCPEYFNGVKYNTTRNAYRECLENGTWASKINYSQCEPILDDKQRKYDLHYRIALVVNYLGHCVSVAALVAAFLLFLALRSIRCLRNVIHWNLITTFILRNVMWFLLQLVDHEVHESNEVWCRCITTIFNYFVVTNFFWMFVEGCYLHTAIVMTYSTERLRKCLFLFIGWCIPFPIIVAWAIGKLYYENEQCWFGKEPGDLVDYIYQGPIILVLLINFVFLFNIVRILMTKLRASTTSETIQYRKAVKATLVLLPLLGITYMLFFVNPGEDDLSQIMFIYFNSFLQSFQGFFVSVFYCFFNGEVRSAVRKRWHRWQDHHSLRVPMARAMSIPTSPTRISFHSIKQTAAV
# T3 sequence (P24387 whole entry): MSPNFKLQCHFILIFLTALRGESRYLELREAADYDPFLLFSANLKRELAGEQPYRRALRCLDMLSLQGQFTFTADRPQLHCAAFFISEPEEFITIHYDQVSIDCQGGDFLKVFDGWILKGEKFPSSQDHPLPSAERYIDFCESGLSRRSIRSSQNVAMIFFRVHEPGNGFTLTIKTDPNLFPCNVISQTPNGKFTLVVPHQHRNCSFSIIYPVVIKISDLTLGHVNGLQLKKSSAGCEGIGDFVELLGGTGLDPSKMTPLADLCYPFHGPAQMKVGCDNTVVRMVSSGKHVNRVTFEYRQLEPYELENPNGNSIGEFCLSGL
# [5] = molecular target: T4, High affinity choline transporter 1 (Homo sapiens, UniProt Q9GZV3); experiment: human choline transporter blockers, potency – cell-based, 5-point CRC, membrane potential dye, dose response (AID 504840); format: functional
# T4 sequence (Q9GZV3 whole entry): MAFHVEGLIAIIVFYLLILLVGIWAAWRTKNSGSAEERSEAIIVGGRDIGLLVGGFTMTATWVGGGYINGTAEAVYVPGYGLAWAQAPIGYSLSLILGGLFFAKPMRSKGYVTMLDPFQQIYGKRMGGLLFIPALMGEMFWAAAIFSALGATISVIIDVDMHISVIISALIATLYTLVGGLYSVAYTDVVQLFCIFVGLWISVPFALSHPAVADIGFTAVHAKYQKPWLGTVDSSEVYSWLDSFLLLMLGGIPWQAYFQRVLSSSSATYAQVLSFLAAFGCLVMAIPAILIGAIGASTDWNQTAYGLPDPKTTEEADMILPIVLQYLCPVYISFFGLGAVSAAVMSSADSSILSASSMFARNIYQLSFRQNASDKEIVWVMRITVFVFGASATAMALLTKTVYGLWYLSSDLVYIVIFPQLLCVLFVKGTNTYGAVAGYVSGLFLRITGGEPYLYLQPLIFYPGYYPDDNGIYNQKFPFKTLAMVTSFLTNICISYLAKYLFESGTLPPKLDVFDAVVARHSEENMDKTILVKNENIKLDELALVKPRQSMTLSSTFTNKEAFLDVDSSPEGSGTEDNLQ
# [6] = molecular target: T5, Sentrin-specific protease 8 (Homo sapiens, UniProt Q96LD8); experiment: inhibition of human SENP8 cleavage activity – biochemical, luminescence, SAR follow-up (AID 504501); format: functional
# T5 sequence (Q96LD8 whole entry): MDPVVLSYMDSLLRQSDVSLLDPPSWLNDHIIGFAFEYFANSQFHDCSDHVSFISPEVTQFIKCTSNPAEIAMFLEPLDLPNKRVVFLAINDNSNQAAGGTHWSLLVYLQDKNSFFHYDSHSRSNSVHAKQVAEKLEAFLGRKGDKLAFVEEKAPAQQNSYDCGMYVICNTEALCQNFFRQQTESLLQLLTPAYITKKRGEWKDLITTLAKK
# Caspase-3 = molecular target: T6, Caspase-3 (Homo sapiens, UniProt P42574); experiment: SAR Analysis of small molecule inhibitors of Sentrin-specific proteases (SENPs) using a Caspase-3 Selectivity assay. [Related pubchem assays (depositor defined):AID2540, AID2599, AID434973, AID489001]; format: functional
# T6 sequence (P42574 whole entry): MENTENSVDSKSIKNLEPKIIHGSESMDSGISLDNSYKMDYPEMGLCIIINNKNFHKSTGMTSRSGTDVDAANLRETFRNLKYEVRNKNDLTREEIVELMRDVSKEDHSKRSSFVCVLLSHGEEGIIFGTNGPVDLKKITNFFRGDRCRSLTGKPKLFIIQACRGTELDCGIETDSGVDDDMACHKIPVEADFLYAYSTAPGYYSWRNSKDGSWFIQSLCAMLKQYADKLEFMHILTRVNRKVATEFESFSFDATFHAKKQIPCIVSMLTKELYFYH
# [7] = molecular target: T7, Sentrin-specific protease 7 (Homo sapiens, UniProt Q9BQF6); experiment: inhibition of human SENP7 cleavage activity – biochemical, luminescence, SAR follow-up (AID 504497); format: functional
# T7 sequence (Q9BQF6 whole entry): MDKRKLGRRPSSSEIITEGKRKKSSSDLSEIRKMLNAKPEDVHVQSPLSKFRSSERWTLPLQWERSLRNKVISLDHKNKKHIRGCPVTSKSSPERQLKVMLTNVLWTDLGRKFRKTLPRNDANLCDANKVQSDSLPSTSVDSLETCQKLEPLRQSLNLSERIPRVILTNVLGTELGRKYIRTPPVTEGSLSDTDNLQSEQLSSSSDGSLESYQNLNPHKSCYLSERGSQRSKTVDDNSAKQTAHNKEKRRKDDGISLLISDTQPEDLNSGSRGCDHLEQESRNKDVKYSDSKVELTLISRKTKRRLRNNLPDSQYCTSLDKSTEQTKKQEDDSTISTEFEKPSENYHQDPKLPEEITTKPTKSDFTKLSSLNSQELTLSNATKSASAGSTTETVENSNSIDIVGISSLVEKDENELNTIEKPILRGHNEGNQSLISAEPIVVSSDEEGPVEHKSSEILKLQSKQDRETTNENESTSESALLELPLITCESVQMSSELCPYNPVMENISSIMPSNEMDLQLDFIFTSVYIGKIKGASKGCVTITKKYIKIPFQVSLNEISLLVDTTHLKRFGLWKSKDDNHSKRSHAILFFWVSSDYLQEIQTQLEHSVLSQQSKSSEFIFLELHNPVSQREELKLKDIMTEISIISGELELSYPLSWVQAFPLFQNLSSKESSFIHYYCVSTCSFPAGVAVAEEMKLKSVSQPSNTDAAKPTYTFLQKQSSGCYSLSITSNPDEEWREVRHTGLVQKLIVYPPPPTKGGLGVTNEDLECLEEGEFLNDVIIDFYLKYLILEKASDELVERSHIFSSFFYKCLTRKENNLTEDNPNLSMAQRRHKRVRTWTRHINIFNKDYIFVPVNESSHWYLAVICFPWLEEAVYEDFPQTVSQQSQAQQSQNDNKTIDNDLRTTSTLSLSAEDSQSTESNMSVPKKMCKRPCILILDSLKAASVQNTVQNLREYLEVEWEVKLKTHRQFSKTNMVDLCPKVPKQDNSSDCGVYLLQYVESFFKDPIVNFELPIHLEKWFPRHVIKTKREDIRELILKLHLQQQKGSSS
# [8] = molecular target: T8, Sentrin-specific protease 6 (Homo sapiens, UniProt Q9GZR1); experiment: SAR Analysis of small molecule inhibitors of Sentrin-specific protease 6 (SENP6) using a Luminescent assay. [Related pubchem assays (depositor defined):AID2582, AID2599]; format: functional
# T8 sequence (Q9GZR1 whole entry): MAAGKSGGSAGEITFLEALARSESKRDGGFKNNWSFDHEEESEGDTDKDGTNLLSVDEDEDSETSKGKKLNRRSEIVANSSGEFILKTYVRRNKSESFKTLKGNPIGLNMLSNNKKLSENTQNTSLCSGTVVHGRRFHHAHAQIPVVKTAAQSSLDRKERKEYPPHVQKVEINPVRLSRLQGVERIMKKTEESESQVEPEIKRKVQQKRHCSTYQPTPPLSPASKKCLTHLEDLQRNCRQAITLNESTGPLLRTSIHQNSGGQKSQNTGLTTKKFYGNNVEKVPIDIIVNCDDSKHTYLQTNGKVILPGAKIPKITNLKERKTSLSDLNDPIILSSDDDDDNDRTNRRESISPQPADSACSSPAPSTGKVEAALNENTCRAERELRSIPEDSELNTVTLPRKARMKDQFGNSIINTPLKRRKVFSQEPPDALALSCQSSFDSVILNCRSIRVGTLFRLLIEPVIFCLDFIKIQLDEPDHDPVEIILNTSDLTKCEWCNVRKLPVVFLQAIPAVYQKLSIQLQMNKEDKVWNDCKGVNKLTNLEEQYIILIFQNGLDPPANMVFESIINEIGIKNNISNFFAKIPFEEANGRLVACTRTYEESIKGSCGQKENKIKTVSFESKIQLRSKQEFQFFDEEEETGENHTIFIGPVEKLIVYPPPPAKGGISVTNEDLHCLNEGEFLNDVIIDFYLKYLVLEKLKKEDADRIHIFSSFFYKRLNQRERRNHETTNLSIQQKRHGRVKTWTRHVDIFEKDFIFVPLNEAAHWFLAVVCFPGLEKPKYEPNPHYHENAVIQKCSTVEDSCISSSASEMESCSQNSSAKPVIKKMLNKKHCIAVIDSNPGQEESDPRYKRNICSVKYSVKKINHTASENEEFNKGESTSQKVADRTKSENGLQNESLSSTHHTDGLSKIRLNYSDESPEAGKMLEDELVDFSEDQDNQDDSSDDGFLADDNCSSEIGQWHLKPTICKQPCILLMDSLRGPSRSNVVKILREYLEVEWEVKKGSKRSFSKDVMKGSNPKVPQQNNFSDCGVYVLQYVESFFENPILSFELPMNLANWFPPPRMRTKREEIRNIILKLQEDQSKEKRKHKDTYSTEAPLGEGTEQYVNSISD
# Sequence of Beta-2 adrenergic receptor (P07550 whole entry, the tested form may be a part): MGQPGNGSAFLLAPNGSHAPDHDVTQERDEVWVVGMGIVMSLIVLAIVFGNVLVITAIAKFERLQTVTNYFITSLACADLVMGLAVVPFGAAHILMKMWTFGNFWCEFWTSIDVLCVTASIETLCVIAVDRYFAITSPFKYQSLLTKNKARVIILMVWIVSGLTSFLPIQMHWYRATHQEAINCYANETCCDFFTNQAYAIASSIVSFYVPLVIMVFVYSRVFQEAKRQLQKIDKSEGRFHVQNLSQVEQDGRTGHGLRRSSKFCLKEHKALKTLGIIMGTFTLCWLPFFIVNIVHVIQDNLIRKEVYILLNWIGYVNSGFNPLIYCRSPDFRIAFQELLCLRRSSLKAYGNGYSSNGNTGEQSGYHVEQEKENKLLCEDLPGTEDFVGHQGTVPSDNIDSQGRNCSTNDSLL
structure (smiles),measurement,setting,value
O=C(c1ccc(OC2CCN(Cc3ccc(C(F)(F)F)cc3)CC2)cc1)N1CCCCC1,EC50,[1],2.59 µM (active)
O=C(Nc1cccc(-c2nc3ncccc3o2)c1)c1sc2cc(Cl)ccc2c1Cl,IC50,[2],7.21 µM (active)
same,AC50,Cytochrome P450 1A2,25.1 µM (inconclusive)
same,EC50,[1],7.22 µM (inactive)
O=C(O)CN1C(=O)/C(=C\c2cc(Br)ccc2OCc2ccc(Cl)cc2Cl)SC1=S,EC50,[3],1.36 µM (active)
same,EC50,Streptococcus,1.95 µM (active)
same,IC50,Genome polyprotein,28.8 µM (active)
same,CC50,Vero,> 40 µM (active)
CC(C)=CCC(C)(C)C1OCCN1C(=O)c1ccccc1 (stereo unspecified),EC50,[1],3.3 µM (active)
O=C(Nc1cc(S(=O)(=O)N2CCCCC2)ccc1O)c1ccccc1NS(=O)(=O)c1ccc(F)cc1,IC50,Genome polyprotein,67.9 µM (active)
same,EC50,[4],1.83 µM (active)
same,IC50,[5],13.2 µM (active)
same,CC50,Vero,> 40 µM (active)
C(=N/Nc1cc(N2CCCCCC2)nc(N2CCCCCC2)n1)/c1ccccc1,IC50,[6],> 99 µM (inactive)
same,IC50,Caspase-3,> 99 µM (inactive)
same,IC50,[7],> 99 µM (inactive)
same,IC50,[8],64.6 µM (active)
CN(C)S(=O)(=O)c1ccc2nc(NC(=O)c3sc4ccccc4c3Cl)sc2c1,IC50,[6],> 99 µM (inactive)
same,IC50,Caspase-3,> 99 µM (inactive)
same,IC50,[7],> 99 µM (inactive)
same,IC50,[8],> 99 µM (inactive)
